Data as given in article PMC8541314, “Production and Purification of Two Bioactive Antimicrobial Peptides Using a Two-Step Approach Involving an Elastin-Like Fusion Tag” (Pharmaceuticals, 2021).

Legend:
E. coli HB101 = test: Broth microdilution MIC / growth inhibition; format: cell-based, Escherichia coli; conditions: 18 h at 37 °C; for MIC: E. coli HB101, broth microdilution in MHB, OD600nm, at least three independent replicates, range 0.39–100 mg/L; for growth inhibition (complete inhibition): E. coli, within tested range 0.39–100 mg/L
Method: (§1) The antibacterial activity of free CM4 and Synoeca was evaluated by determination of the minimum inhibitory concentration (MIC) against Gram-negative (E. coli HB101, P. aeruginosa ATCC10145, B. cenocepacia IST439, B. cenocepacia IST4113, and K. pneumoniae) and Gram-positive (S. aureus ATCC6538 and S. epidermidis) bacteria. The AMPs were incubated with bacterial suspensions and assessed for bacterial growth, with the MIC defined as the lowest concentration of AMPs that inhibited the visible growth of bacteria (Figure 5).
(§2) E. coli XL1-Blue and BL21(DE3) strains were used for the cloning and production steps, respectively. E. coli HB101, S. aureus ATCC6538, P. aeruginosa ATCC10145, B. cenocepacia IST439, B. cenocepacia IST4113, and clinical isolates of K. pneumoniae and S. epidermidis were used in the broth microdilution MIC assays. The clonal variants of B. cenocepacia were isolated, with a 3-year difference, from the same cystic fibrosis (CF) patient.
(§3) The antibacterial activity of the isolated AMPs was assessed via broth microdilution method to determine the MIC against clinically relevant Gram-negative and Gram-positive bacteria—E. coli HB101, P. aeruginosa ATCC10145, B. cenocepacia IST439, B. cenocepacia IST4113, K. pneumoniae isolate, S. aureus ATCC6538 and S. epidermidis isolate—following the European Committee on Antimicrobial Susceptibility Testing (EUCAST) and the Clinical Laboratory Standards Institute (CLSI) guidelines. A detailed description of the method is provided by Wiegand et al.. Briefly, stock solutions of 2 mg/mL of AMP in sterile mQ water were used for the preparation of two-fold serial dilutions in MHB, to obtain final testing concentrations within the range of 0.39–100 mg/L (200 mg/L for B. cenocepacia strains). For the MIC assays, 50 μL of protein solution and 50 μL of bacterial suspensions in MHB (1 × 10^6 CFUs/mL) were mixed in 96-well plates (Nunc™ Edge 2.0 96-well plates, Thermo Scientific™, Waltham, Massachusetts, EUA) and incubated for 18 h at 37 °C. Growth inhibition was assessed by measuring optical density at 600 nm (OD600nm). The MIC was determined as the lowest concentration of antimicrobial peptide that inhibited the visible growth of the testing bacteria. At least three independent replicates were performed for each peptide and bacterial strain. Data were analysed by GraphPad Prism 6 Software (GraphPad Software, Inc., La Jolla, CA, USA).

S. aureus ATCC6538 = test: Broth microdilution MIC / growth inhibition; format: cell-based, Staphylococcus aureus; conditions: 18 h at 37 °C; for MIC: S. aureus ATCC6538, broth microdilution in MHB, OD600nm, at least three independent replicates, range 0.39–100 mg/L; for growth inhibition (complete inhibition): S. aureus, within tested range 0.39–100 mg/L
Method: as §1, §2, §3

K. pneumoniae isolate = test: Broth microdilution MIC / growth inhibition; format: cell-based, Klebsiella pneumoniae; conditions: 18 h at 37 °C, OD600nm; for MIC: K. pneumoniae clinical isolate, broth microdilution in MHB, at least three independent replicates, range 0.39–100 mg/L
Method: as §1, §2
as §3, with “For the MIC assays, 50 μL of protein solution and 50 μL of bacterial suspensions in MHB (1 × 10^6 CFUs/mL) were mixed in 96-well plates (Nunc™ Edge 2.0 96-well plates, Thermo Scientific™, Waltham, Massachusetts, EUA) and incubated for 18 h at 37 °C.” left out, “At least three independent replicates were performed for each peptide and bacterial strain.” left out

P. aeruginosa ATCC10145 = test: Broth microdilution MIC / growth inhibition; format: cell-based, Pseudomonas aeruginosa; conditions: 18 h at 37 °C, OD600nm; for MIC: P. aeruginosa ATCC10145, broth microdilution in MHB, at least three independent replicates, range 0.39–100 mg/L; for mean value of growth inhibition: P. aeruginosa
Method: as §1, §2, §3

B. cenocepacia IST4113 = test: Broth microdilution MIC / growth inhibition; format: cell-based, Burkholderia cenocepacia; conditions: 18 h at 37 °C, OD600nm; for MIC: broth microdilution in MHB, at least three independent replicates, range up to 200 mg/L
Method: as §1, §2, §3

B. cenocepacia IST439 = test: Broth microdilution MIC / growth inhibition; format: cell-based, Burkholderia cenocepacia; conditions: 18 h at 37 °C, OD600nm; for MIC: broth microdilution in MHB, at least three independent replicates, range up to 200 mg/L
Method: as §1, §2, §3

S. epidermidis isolate = test: Broth microdilution MIC / growth inhibition; format: cell-based, Staphylococcus epidermidis; conditions: 18 h at 37 °C; for MIC: S. epidermidis clinical isolate, broth microdilution in MHB, OD600nm, at least three independent replicates, range 0.39–100 mg/L; for growth inhibition (complete inhibition): S. epidermidis, within tested range 0.39–100 mg/L
Method: as §1, §2, §3

mammalian cells = conditions: cited from earlier work
Text: In this work, we report the use of A200 as a thermoresponsive protein tag for the production and purification of the following two AMPs, using Escherichia coli as a cell factory: ABP-CM4 (CM4), a 35 amino acid antimicrobial peptide, isolated from the haemolymph of the silkworm Bombyx mori; and Synoeca-MP (Synoeca), a 14 amino acid antimicrobial peptide, isolated from the venom of the Synoeca surinama wasp. CM4 is a member of the cecropin family of peptides, with antibacterial, antifungal, and antitumor activities, while showing no toxicity towards mammalian cells [[26],[28],[29], ...

Row | Substance | MIC (E. coli HB101) | growth inhibition (complete inhibition) (E. coli HB101) | MIC (S. aureus ATCC6538) | growth inhibition (complete inhibition) (S. aureus ATCC6538) | MIC (K. pneumoniae isolate) | MIC (P. aeruginosa ATCC10145) | mean value of growth inhibition (P. aeruginosa ATCC10145; peptide 100.00 mg/L) | MIC (B. cenocepacia IST4113) | growth inhibition (B. cenocepacia IST4113; peptide 100.00 mg/L) | mean value of growth inhibition (B. cenocepacia IST4113; peptide 200.00 mg/L) | MIC (B. cenocepacia IST439) | growth inhibition (B. cenocepacia IST439; peptide 100.00 mg/L) | MIC (S. epidermidis isolate) | growth inhibition (complete inhibition) (S. epidermidis isolate) | toxicity towards mammalian cells (mammalian cells; mammalian cells) | mean value of growth inhibition (K. pneumoniae isolate; K. pneumoniae, within tested range 0.39–100 mg/L) | mean value of growth inhibition (P. aeruginosa ATCC10145; within tested range 0.39–100 mg/L) | cytotoxicity against mammalian cell lines (mammalian cells; mammalian cell lines)
1 | ABP-CM4 | 50.00 µg/mL | 100% | 3.13 µg/mL | 100% | 50.00 µg/mL | >100.00 µg/mL | 25% | 200.00 µg/mL | around 75% | 100% | ~200.00 µg/mL | around 75% | 12.50 µg/mL | 100% | no toxicity |  |  | 
2 | Synoeca-MP | 25.00 µg/mL | 100% | 1.56 µg/mL | 100% | >100.00 µg/mL | >100.00 µg/mL |  | 12.50 µg/mL |  |  | 12.50 µg/mL |  | 6.25 µg/mL | 100% |  | lower than 5% | lower than 5% | no significant cytotoxicity
